Test results published in US7169787B2, “7-azaindoles, use thereof as phosphodiesterase 4 inhibitors and method for producing the same” (Elbion AG, priority 2000, dated 2007).

Key:
[1] = target: PDE 4; experiment: Inhibition of phosphodiesterase 4 (enzyme preparation from human PMNL, [3H]-cAMP); format: biochemical; conditions: PDE 4 from human PMNL cytosol, 0.5 μM [3H]-cAMP
Protocol: The PDE 4 activity is determined in enzyme preparations from human polymorphonuclear […] (PMNL) and the PDE 2, 3 and 5 activity is determined with PDE from human thrombocytes. Human blood was anti-coagulated with citrate. By centrifuging at 700×g for 20 minutes at room temperature, the thrombocyte-rich plasma in the supernatant is separated from the erythrocytes and leukocytes. The thrombocytes are lysed by ultrasound and used in the PDE 3 and PDE 5 assays. For the determination of the PDE 2 activity, the cytosolic thrombocyte fraction is purified on an anionic exchange column by means of NaCl gradients and the PDE 2 peak is obtained for the assay. The PMNLs for the PDE 4 determination are isolated by a subsequent dextran sedimentation, followed by a gradient centrifugation with Ficoll-Paque. After the cells have been washed twice, the erythrocytes, still contained, are lysed within 6 minutes at 4° C. by the addition of 10 mL of hypotonic buffer (155 mM of NH4Cl, 10 mM of NaHCO3, 0.1 mM of EDTA, pH=7.4). The PMNLs, which are still intact, are washed twice with PBS and lysed with ultrasound. The supernatant of a one-hour centrifugation at 4° C. at 48,000×g contains the cytosolic fraction of the PDE 4 and is used for the PDE 4 measurements.
The phosphodiesterase activity is determined using the method described by Thompson et al. with some modifications (Thompson, W. J. and M. M. Appleman, Assay of cyclic nucleotide phosphodiesterase and resolution of multiple molecular forms of the enzyme, Adv. Cycl. Nucl. Res. 1979, 10, 69–92).
The reaction mixtures contain 50 mM of tris hydrochloride (pH 7.4), 5 mM of magnesium chloride, the inhibitors in various concentrations, the corresponding enzyme preparation as well as the further components necessary for determining the individual isoenzymes (see below). The reaction is started by the addition of the substrate, 0.5 μM of [^3H]-cAMP or [^3H]-cGMP (approximately 6000 CPM per test). The final volume is […]. Test substances are mixed as stock solutions in DMSO. The DMSO concentration in the reaction mixture is 1% v/v. The PDE activity is not affected by this concentration of DMSO. After the reaction is started by the addition of substrate, samples are incubated for 30 minutes at 37° C. The reaction is stopped by heating the test tubes for 2 minutes at 110° C. The samples remain for a further 10 minutes in ice. The addition of 30 μL of 5′-nucleotidase (1 mg/mL, from a poisonous snake suspension from Crotalus adamanteus) is followed by a 10-minutes incubation at 37° C. The samples are stopped on ice, in each case 400 μL of a mixture of Dowex, water and ethanol (1+1+1) is added, mixed well and incubated once again for 15 minutes on ice. The reaction vessels are centrifuged for 20 minutes at 3000×g. Aliquots of the supernatant (200 μL) are transferred directly to scintillation vessels. After the addition of 3 mL of scintillator, the samples are measured in the beta counter.
[^3H]-cAMP is used as substrate for the determination of the PDE 4, 3 and 2 activity and [^3H]-cGMP is used as substrate for the determination of the PDE 5 activity. The enzyme activities, which are nonspecific in each case, are determined in the presence of 100 μM of Rolipram for the determination of PDE 4 and in the presence of 100 μM of IBMX for the determination of the PDE 3 and 5 and subtracted from the test values. The incubation formulations of the PDE 3 assays contained 10 μM of Rolipram, in order to inhibit possible contaminations by PDE 4. The PDE 2 is tested with an SPA assay of the Amersham Company. The assay is carried out in the presence of the activator of the PDE 2 (5 μM of cGMP).

[2] = system: actively sensitized Brown Norway Rats; experiment: Inhibition of the late phase eosinophilia 48 hours after inhalative ovalbumin challenge; format: in vivo, rat; conditions: 2 h before allergen challenge, BAL 48 h after challenge
Protocol: The inhibition of pulmonary eosinophilia infiltration by the inventive substances is tested on male Brown Norway Rats (200–250 g), which had been actively sensitized against ovalbumin (OVA). The rats were sensitized by subcutaneous injections of a suspension of 10 μg OVA together with 20 mg of aluminum hydroxide as adjuvant in 0.5 mL of physiological salt solution per animal on days 1, 14 and 21. In addition, the animals at the same time received Bordetella pertussis vaccine dilution injected 0.25 mL i.p. per animal. On the 28th day of the experiment, the animals are placed individually in open 1 L Plexiglas boxes, which are connected to a head-nose exposure device. The animals are exposed to an aerosol of 1.0% ovalbumin suspension (allergen challenge). The ovalbumin aerosol is produced by a nebulizer (Bird Micronebulizer, Palm Springs Calif., USA), which is operated with compressed air (0.2 MPa). The exposure time is one hour, normal controls being nebulized also for one hour with an aerosol of 0.9% salt solution.
Forty-eight hours after the allergen challenge, there is a massive migration of eosinophilic granulocytes into the lungs of the animals. At this time, the animals are anesthetized with an excess of ethyl urethane (1.5 g/kg of body weight i.p.) and a bronchoalveolar lavage (BAL) with 3×4 mL of Hank's balance solution is carried out. The total cell count and the number of eosinophilic granulocytes of the pooled BAL liquid are subsequently determined with an automatic cell differentiation instrument (Bayer Diagnostics Technicon HIE). For each animal, the eosinophiles (EOS) in the BAL are calculated in millions/animal: EOS/μl×BAL recovery (mL)=EOS/animal.
For each test, 2 control groups were run (nebulization with physiological salt solution and nebulization with OVA solution).
The percentage inhibition of the eosinophilia of the experimental group, treated with substance, was calculated according to the following formula: {((OVAC−SC)−(OVAD−SC))/(OVAC−SC)}×100%=% inhibition (SC=vehicle-treated control group challenged with 0.9% salt solution; OVAC=vehicle-treated control group challenged with 1% ovalbumin suspension; OVAD=substance-treated experimental group challenged with 1% ovalbumin suspension)
The test substances are applied i.p. or orally as a suspension in 10% polyethylene glycol 300 and 0.5% 5-hydroxyethylcellulose for two hours before the allergen challenge. The control groups are treated with the vehicle in accordance with the application form of the test substance.

CC(C)Cn1cc(C(=O)C(=O)Nc2c(Cl)cncc2Cl)c2cccnc21 [Example 27] was tested, and the IC50 [1] was 2 nM, the “Inhibition of Eosinophilia” value ([2]; 10 mg/kg i.p.) was 50% and the “Inhibition of Eosinophilia” value ([2]; 10 mg/kg p.o.) was 70%.

In the case of O=C(Nc1c(Cl)cncc1Cl)C(=O)c1cn(Cc2ccc(F)cc2)c2ncccc12 [Example 14], the IC50 [1] is reported as 4 nM, the “Inhibition of Eosinophilia” value ([2]; 10 mg/kg i.p.) is reported as 62% and the “Inhibition of Eosinophilia” value ([2]; 10 mg/kg p.o.) is reported as 59%.
